Experimental data reported in patent US20240132498A1, “CRYSTALLINE FORMS OF 5-(3,4-DIFLUOROBENZYL)-8-((1R,4R)-4-METHYLCYCLOHEXYL)-6,9-DIOXO-2,5,8-TRIAZASPIRO[3.5]NONANE-2-CARBALDEHYDE” (Cytokinetics, Incorporated, priority 2022, published 2024).
Blank lines part the entries; values can stand above or below the compound they belong to.

Assays:
Format in all cases: physicochemical
[1] = Polymorph screening with liquid assisted grinding (LAG), XRPD outcome
Procedure: 30 mg of amorphous 5-(3,4-difluorobenzyl)-8-((1r,4r)-4-methylcyclohexyl)-6,9-dioxo-2,5,8-triazaspirol[3.5]nonane-2-carbaldehyde was wetted with solvent (5 μL). Two grinding beads (3 mm diameter) were added and the samples were ground for 2 hours at 500 rpm using a planetary Fritsch Mill (Pulverisette 6). After grinding all solids were analysed by XRPD.
Gums were stored at ambient conditions. Gums and samples containing brittle material were dried in-vacuo at R. T. in a vacuum oven overnight (ca. 200 mbar). Observations were recorded and the samples were further dried in-vacuo at R. T. in a vacuum oven overnight (ca. 5 mbar). Where gums still persisted, the samples were further dried in-vacuo at R. T. in a vacuum oven (ca. 5 mbar) for 3 days. The observations and XRPD analysis are provided in Table 5-G. Further treatment details of gums and brittle materials are summarized in Table 5-H.

[2] = Short-term static storage stability of the solid (XRPD, HPLC)
Procedure: Purity analysis was performed on an Agilent HP1100/Infinity 111260 series system equipped with a diode array detector and using OpenLAB software. The full method details are provided below.
For short-term (8 days or fewer) stability experiments, solid material was placed into open vials at elevated storage conditions, unless otherwise stated. These conditions were achieved using saturated salt solutions at specific temperatures within sealed containers. Storage containers were pre-equilibrated prior to input of samples.

[3] = Competitive slurry experiments between Form I and Form II; conditions: competitive slurry
From the text: The results of the competitive slurry experiments are provided below in Table 6.

[4] = Storage at 40° C./75% RH for 7 days

XRPD ([1]; LAG gum/brittle material after drying in-vacuo, solvent EtOH/water 97:3 v/v): Form II
XRPD ([1]; LAG of amorphous material, solvent 1,4-dioxane/water 99:1 v/v): Form II
XRPD ([1]; LAG of amorphous material, solvent 1-PrOH/water 98:2 v/v): Form I
XRPD ([1]; LAG of amorphous material, solvent 15% v/v water in 1-PrOH): Form II
XRPD ([1]; LAG of amorphous material, solvent 15% v/v water in 2-PrOH): Form II
XRPD ([1]; LAG of amorphous material, solvent 15% v/v water in DMSO): Form I
XRPD ([1]; LAG of amorphous material, solvent 15% v/v water in EtOH): Form II
XRPD ([1]; LAG of amorphous material, solvent 15% v/v water in MeOH): Form II
XRPD ([1]; LAG of amorphous material, solvent 15% v/v water in acetone): Form I
XRPD ([1]; LAG of amorphous material, solvent 50% v/v water in 1-PrOH): Form II
XRPD ([1]; LAG of amorphous material, solvent 50% v/v water in DMSO): Form I
XRPD ([1]; LAG of amorphous material, solvent 50% v/v water in EtOH): Form I
XRPD ([1]; LAG of amorphous material, solvent 50% v/v water in acetone): Amorphous
XRPD ([1]; LAG of amorphous material, solvent 80% v/v water in 2-BuOH): Form I
XRPD ([1]; LAG of amorphous material, solvent 85% v/v water in 2-PrOH): Form I
XRPD ([1]; LAG of amorphous material, solvent 85% v/v water in acetone): Amorphous
XRPD ([1]; LAG of amorphous material, solvent 95% v/v water in 2-BuOH): Form I
XRPD ([1]; LAG of amorphous material, solvent Acetone/water 99:1 v/v): Form II
XRPD ([1]; LAG of amorphous material, solvent Acetonitrile/water 1:1 v/v): Form II
XRPD ([1]; LAG of amorphous material, solvent MeOH/water 97:3 v/v): Form II
SMILES: C[C@H]1CC[C@H](N2CC(=O)N(Cc3ccc(F)c(F)c3)C3(CN(C=O)C3)C2=O)CC1

HPLC purity ([2]; Before Storage): 96.3%
XRPD ([2]; Before Storage): Form I
XRPD ([2]; Storage at 25° C./97% RH for 7 days): Unchanged by XRPD
XRPD [2, 4]: Unchanged by XRPD
SMILES: C[C@H]1CC[C@H](N2CC(=O)N(Cc3ccc(F)c(F)c3)C3(CN(C=O)C3)C2=O)CC1 [Form I, 5-(3,4-difluorobenzyl)-8-((1r,4r)-4-methylcyclohexyl)-6,9-dioxo-2,5,8-triazaspiro[3.5]nonane-2-carbaldehyde]

XRPD [2, 4]: converted to crystalline Form II
SMILES: C1COCCO1.C[C@H]1CC[C@H](N2CC(=O)N(Cc3ccc(F)c(F)c3)C3(CN(C=O)C3)C2=O)CC1 [Form III, 5-(3,4-difluorobenzyl)-8-((1r,4r)-4-methylcyclohexyl)-6,9-dioxo-2,5,8-triazaspiro[3.5]nonane-2-carbaldehyde 1,4-dioxane solvate]

XRPD ([3]; EtOAc, 5 °C): Form II
XRPD ([3]; EtOAc/cyclohexane (50:50 v/v), 5 °C): Form II
XRPD ([3]; EtOAc/cyclohexane (50:50 v/v), 50 °C): Form II
XRPD ([3]; EtOAc/cyclohexane (85:15 v/v), 5 °C): Form II
XRPD ([3]; EtOAc/cyclohexane (85:15 v/v), 50 °C): Form II
XRPD ([3]; EtOH, 5 °C): Form II
XRPD ([3]; EtOH, 50 °C): Form II
XRPD ([3]; EtOH/water (15/85 v/v), 50 °C): Form II
XRPD ([3]; EtOH/water (85:15 v/v), 50 °C): Form II
XRPD ([3]; MIBK, 5 °C): Form II
XRPD ([3]; MIBK, 50 °C): Form II
XRPD ([3]; Toluene, 50 °C): Form II
XRPD ([3]; acetonitrile, 5 °C): Form II
XRPD ([3]; acetonitrile, 50 °C): Form II
SMILES: C[C@H]1CC[C@H](N2CC(=O)N(Cc3ccc(F)c(F)c3)C3(CN(C=O)C3)C2=O)CC1 [Forms I and II]
